Laboratory results: patent US6995188B2 (priority 2002, dated 2006)

Columns and labels:
[1] = tested on: panel of 60 tumor cell lines; type: cell-based, human
[2] = tested on: blood mononuclear cells from leukemia patients; type: cell-based, human
[3] = tested on: caspase 3 and caspase 3-like activities; type: cell-based, human
HL-60 cells = type: cell-based, human
U937/PR9 cells = type: cell-based, human
[4] = tested on: P388 lymphocytic leukemia cells; conditions: mouse, in vivo, ip, 100 mg/kg; cited from earlier work
[5] = pH 5

Structure (SMILES): C[As](C)SC[C@H](NC(=O)CC[C@H](N)C(=O)O)C(=O)NCC(=O)O [SGLU1, S-(dimethylarsino) glutathione]
- anticancer activity, NIH panel [1]: showed evidence of activity at low concentrations against a variety of tumor cell lines
- activity against blood cells from patients with leukemia [2]: significant activity against blood tumor cells from patients with leukemia
- activation of caspases (PhiPhiLux staining) [3]: activation of caspases
- effect on cell cycle (HL-60 cells): marked accumulation of cells in S-phase of cell cycle
- influence of functional PML/RARalpha gene on sensitivity (U937/PR9 cells): no influence on the sensitivity of the cells
- % T/C [4]: 164%
- toxicity to normal cells, long-term clonogenic assay (normal donor cells): less toxic then arsenic trioxide to normal cells
- loss [5]: Less than 10%
